This is an account of results in patent US8173638B2 (Boehringer Ingelheim International GmbH, priority 2006, dated 2012).

Structures are written as SMILES.

The assay deals with T1, human CB2R (Homo sapiens, UniProt P34972).
T1 construct: host or cells: CHO cells
T1 sequence (P34972 whole entry): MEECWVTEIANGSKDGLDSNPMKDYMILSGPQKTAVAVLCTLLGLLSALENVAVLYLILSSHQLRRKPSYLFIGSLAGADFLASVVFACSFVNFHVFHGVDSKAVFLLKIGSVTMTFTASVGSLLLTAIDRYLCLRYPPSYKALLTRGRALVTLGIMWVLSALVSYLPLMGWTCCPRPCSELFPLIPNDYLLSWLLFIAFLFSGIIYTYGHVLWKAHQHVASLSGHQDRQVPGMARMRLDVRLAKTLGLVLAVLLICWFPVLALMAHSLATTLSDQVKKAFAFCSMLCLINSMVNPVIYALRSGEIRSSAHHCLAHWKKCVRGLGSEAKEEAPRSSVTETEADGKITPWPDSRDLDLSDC
The experiment in a line: CB2R mediated modulation of cAMP synthesis. Particulars: found through the use of the described assays (CB2 agonists); qualitative statement. Format: cell-based. In outline: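 CHO cells expressing human CB2R treated with compound 30 min at 37 °C in buffer with 1 mM IBMX, 0.25% BSA and 10 uM forskolin. cAMP measured after lysis by DiscoverX-XS kit.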
`CC(C)(C)c1ccc(NC(=O)N2CCCN(C(=O)CCC3CC3)CC2)cc1` [4-(3-Cyclopropyl-propionyl)-[1,4]diazepane-1-carboxylic acid (4-tert-butyl-phenyl)-amide]: the agonistic activity entry is listed as “agonistic activity”.

Regarding `O=C(CCC1CC1)N1CCCN(C(=O)Nc2ccc3ccccc3c2)CC1` [4-(3-Cyclopropyl-propionyl)-[1,4]diazepane-1-carboxylic acid naphthalen-2-ylamide], the agonistic activity result is listed as “agonistic activity”.

As for `CC(C)CC(=O)N1CCCN(C(=O)Nc2cc(C(C)(C)C)on2)CC1` [4-(3-Methyl-butyryl)-[1,4]diazepane-1-carboxylic acid (5-tert-butyl-isoxazol-3-yl)-amide], the agonistic activity entry is listed as “agonistic activity”.

With `CC(C)c1ccc(NC(=O)N2CCCN(C(=O)CCC(F)(F)F)CC2)cc1` [4-(4,4,4-Trifluoro-butyryl)-[1,4]diazepane-1-carboxylic acid (4-isopropyl-phenyl)-amide], the agonistic activity entry is on record as “agonistic activity”.

With `CC(C)(C)c1ccc(NC(=O)N2CCCN(C(=O)CCC(F)(F)F)CC2)cc1` [4-(4,4,4-Trifluoro-butyryl)-[1,4]diazepane-1-carboxylic acid (4-tert-butyl-phenyl)-amide], the agonistic activity result is “agonistic activity”.

For the molecule `O=C(CCC(F)(F)F)N1CCCN(C(=O)Nc2ccc3ccccc3c2)CC1` [4-(4,4,4-Trifluoro-butyryl)-[1,4]diazepane-1-carboxylic acid naphthalen-2-ylamide], the agonistic activity entry is recorded as “agonistic activity”.

With `CC(C)(C)c1cc(NC(=O)N2CCCN(C(=O)C3CCC(F)(F)CC3)CC2)on1` [4-(4,4-Difluoro-cyclohexanecarbonyl)-[1,4]diazepane-1-carboxylic acid (3-tert-butyl-isoxazol-5-yl)-amide], the agonistic activity result is on record as “agonistic activity”.

In the case of `O=C(Nc1ccc(C(F)(F)F)cc1)N1CCCN(C(=O)C2CCC(F)(F)CC2)CC1` [4-(4,4-Difluoro-cyclohexanecarbonyl)-[1,4]diazepane-1-carboxylic acid (4-trifluoromethyl-phenyl)-amide], the agonistic activity entry is given as “agonistic activity”.

On to `Cc1nc(NC(=O)N2CCCN(C(=O)C3CCC(F)(F)CC3)CC2)sc1C(C)(C)C` [4-(4,4-Difluoro-cyclohexanecarbonyl)-[1,4]diazepane-1-carboxylic acid (5-tert-butyl-4-methyl-thiazol-2-yl)-amide], for which the agonistic activity entry was “agonistic activity”.

For the molecule `CC(C)(C)c1cc(NC(=O)N2CCCN(C(=O)C3CCC(F)(F)CC3)CC2)no1` [4-(4,4-Difluoro-cyclohexanecarbonyl)-[1,4]diazepane-1-carboxylic acid (5-tert-butyl-isoxazol-3-yl)-amide], the agonistic activity entry is recorded as “agonistic activity”.

For `CC(C)(C)c1cc(NC(=O)N2CCCN(C(=O)N3CCC(F)(F)CC3)CC2)no1` [4-(4,4-Difluoro-piperidine-1-carbonyl)-[1,4]diazepane-1-carboxylic acid (5-tert-butyl-isoxazol-3-yl)-amide], the agonistic activity result is on record as “agonistic activity”.

For `CC(=O)N1CCN(C(=O)N2CCCN(C(=O)Nc3cc(C(C)(C)C)on3)CC2)CC1` [4-(4-Acetyl-piperazine-1-carbonyl)-[1,4]diazepane-1-carboxylic acid (5-tert-butyl-isoxazol-3-yl)-amide], the agonistic activity result is reported as “agonistic activity”.

Consider `CC(=O)NC1CCC(C(=O)N2CCCN(C(=O)Nc3cc(C(C)(C)C)on3)CC2)CC1` (stereo not drawn) [4-(4-Acetylamino-cyclohexanecarbonyl)-[1,4]diazepane-1-carboxylic acid (5-tert-butyl-isoxazol-3-yl)-amide], for which the agonistic activity entry is “agonistic activity”.

`CC(C)(C)c1cc(NC(=O)N2CCCN(C(=O)C3CCC(N)CC3)CC2)no1` (stereo not drawn) [4-(4-Amino-cyclohexanecarbonyl)-[1,4]diazepane-1-carboxylic acid (5-tert-butyl-isoxazol-3-yl)-amide]: the agonistic activity result was “agonistic activity”.

For `O=C(Nc1ccc(Cl)c(Cl)c1)N1CCCN(C(=O)c2ccc(Cl)cc2)CC1` [4-(4-Chloro-benzoyl)-[1,4]diazepane-1-carboxylic acid (3,4-dichloro-phenyl)-amide], the agonistic activity entry is “agonistic activity”.

For `O=C(Nc1cc(Cl)cc(Cl)c1)N1CCCN(C(=O)c2ccc(Cl)cc2)CC1` [4-(4-Chloro-benzoyl)-[1,4]diazepane-1-carboxylic acid (3,5-dichloro-phenyl)-amide], the agonistic activity result is “agonistic activity”.

For `O=C(Nc1nc2c(s1)CCCC2)N1CCCN(C(=O)c2ccc(Cl)cc2)CC1` [4-(4-Chloro-benzoyl)-[1,4]diazepane-1-carboxylic acid (4,5,6,7-tetrahydro-benzothiazol-2-yl)-amide], the agonistic activity entry is “agonistic activity”.

For the molecule `O=C(Nc1nc(C2CC2)cs1)N1CCCN(C(=O)c2ccc(Cl)cc2)CC1` [4-(4-Chloro-benzoyl)-[1,4]diazepane-1-carboxylic acid (4-cyclopropyl-thiazol-2-yl)-amide], the agonistic activity entry is given as “agonistic activity”.

For `CC(C)c1ccc(NC(=O)N2CCCN(C(=O)c3ccc(Cl)cc3)CC2)cc1` [4-(4-Chloro-benzoyl)-[1,4]diazepane-1-carboxylic acid (4-isopropyl-phenyl)-amide], the agonistic activity result is reported as “agonistic activity”.

Regarding `O=C(Nc1nc(-c2ccccc2)cs1)N1CCCN(C(=O)c2ccc(Cl)cc2)CC1` [4-(4-Chloro-benzoyl)-[1,4]diazepane-1-carboxylic acid (4-phenyl-thiazol-2-yl)-amide], the agonistic activity entry was “agonistic activity”.

For the molecule `O=C(Nc1ccc(C(F)(F)F)cc1)N1CCCN(C(=O)c2ccc(Cl)cc2)CC1` [4-(4-Chloro-benzoyl)-[1,4]diazepane-1-carboxylic acid (4-trifluoromethyl-phenyl)-amide], the agonistic activity result was “agonistic activity”.

In the case of `CC(C)(C)c1cc(NC(=O)N2CCCN(C(=O)c3ccc(Cl)cc3)CC2)no1` [4-(4-Chloro-benzoyl)-[1,4]diazepane-1-carboxylic acid (5-tert-butyl-isoxazol-3-yl)-amide], the agonistic activity result was “agonistic activity”.

`O=C(Nc1ccc2ccccc2c1)N1CCCN(C(=O)c2ccc(Cl)cc2)CC1` [4-(4-Chloro-benzoyl)-[1,4]diazepane-1-carboxylic acid naphthalen-2-ylamide]: the agonistic activity entry was “agonistic activity”.

Turning to `CC(C)(C)c1ccc(NC(=O)N2CCCN(C(=O)c3ccc(C#N)cc3)CC2)cc1` [4-(4-Cyano-benzoyl)-[1,4]diazepane-1-carboxylic acid (4-tert-butyl-phenyl)-amide], the agonistic activity result is on record as “agonistic activity”.

As to `N#Cc1ccc(C(=O)N2CCCN(C(=O)Nc3ccc4ccccc4c3)CC2)cc1` [4-(4-Cyano-benzoyl)-[1,4]diazepane-1-carboxylic acid naphthalen-2-ylamide], the agonistic activity result is “agonistic activity”.

In the case of `CN(C)c1ccc(C(=O)N2CCCN(C(=O)Nc3ccc4ccccc4c3)CC2)cc1` [4-(4-Dimethylamino-benzoyl)-[1,4]diazepane-1-carboxylic acid naphthalen-2-ylamide], the agonistic activity result is on record as “agonistic activity”.

As for `O=C(Nc1ccc(C(F)(F)F)cc1)N1CCCN(C(=O)c2ccc(F)cc2)CC1` [4-(4-Fluoro-benzoyl)-[1,4]diazepane-1-carboxylic acid (4-trifluoromethyl-phenyl)-amide], the agonistic activity result is “agonistic activity”.

Turning to `CC1(O)CCC(C(=O)N2CCCN(C(=O)Nc3cc(C(C)(C)C)on3)CC2)CC1` (stereo not drawn) [4-(4-Hydroxy-4-methyl-cyclohexanecarbonyl)-[1,4]diazepane-1-carboxylic acid (5-tert-butyl-isoxazol-3-yl)-amide], the agonistic activity result is listed as “agonistic activity”.

In the case of `O=C(Nc1nc(-c2ccccc2)cs1)N1CCCN(C(=O)C2CCC(O)CC2)CC1` (stereo not drawn) [4-(4-Hydroxy-cyclohexanecarbonyl)-[1,4]diazepane-1-carboxylic acid (4-phenyl-thiazol-2-yl)-amide], the agonistic activity result was “agonistic activity”.

Turning to `CC(C)(C)c1cnc(NC(=O)N2CCCN(C(=O)C3CCC(O)CC3)CC2)s1` (stereo not drawn) [4-(4-Hydroxy-cyclohexanecarbonyl)-[1,4]diazepane-1-carboxylic acid (5-tert-butyl-thiazol-2-yl)-amide], the agonistic activity result is on record as “agonistic activity”.

`CC(C)(C)c1cc(NC(=O)N2CCCN(C(=O)N3CCN(S(C)(=O)=O)CC3)CC2)no1` [4-(4-Methanesulfonyl-piperazine-1-carbonyl)-[1,4]diazepane-1-carboxylic acid (5-tert-butyl-isoxazol-3-yl)-amide]: the agonistic activity entry is given as “agonistic activity”.

Regarding `CC(C)(C)c1cc(NC(=O)N2CCCN(C(=O)N3CCC(S(C)(=O)=O)CC3)CC2)no1` [4-(4-Methanesulfonyl-piperidine-1-carbonyl)-[1,4]diazepane-1-carboxylic acid (5-tert-butyl-isoxazol-3-yl)-amide], the agonistic activity result is given as “agonistic activity”.

In the case of `CC(C)(C)c1cc(NC(=O)N2CCCN(C(=O)C3CCC(NS(C)(=O)=O)CC3)CC2)no1` (stereo not drawn) [4-(4-Methanesulfonylamino-cyclohexanecarbonyl)-[1,4]diazepane-1-carboxylic acid (5-tert-butyl-isoxazol-3-yl)-amide], the agonistic activity result was “agonistic activity”.

As for `COc1ccc(C(=O)N2CCCN(C(=O)Nc3ccc4ccccc4c3)CC2)cc1` [4-(4-Methoxy-benzoyl)-[1,4]diazepane-1-carboxylic acid naphthalen-2-ylamide], the agonistic activity entry is “agonistic activity”.

As for `COC1CCC(C(=O)N2CCCN(C(=O)Nc3cc(C(C)(C)C)on3)CC2)CC1` (stereo not drawn) [4-(4-Methoxy-cyclohexanecarbonyl)-[1,4]diazepane-1-carboxylic acid (5-tert-butyl-isoxazol-3-yl)-amide], the agonistic activity result is given as “agonistic activity”.

Turning to `COC1CCN(C(=O)N2CCCN(C(=O)Nc3cc(C(C)(C)C)no3)CC2)CC1` [4-(4-Methoxy-piperidine-1-carbonyl)-[1,4]diazepane-1-carboxylic acid (3-tert-butyl-isoxazol-5-yl)-amide], the agonistic activity result was “agonistic activity”.
